Laboratory results published in publication PMC12444472, “BCI inhibits MKP3 by targeting the kinase-binding domain and disrupting ERK2 interaction” (The Journal of Biological Chemistry, 2025).

Experiments:
MKP3 = details: basal, without ERK2; cited from earlier work
[1] = target: T1, Full-length human MKP3, MKP3(1-381) (human) (UniProt Q16828)
T1 sequence: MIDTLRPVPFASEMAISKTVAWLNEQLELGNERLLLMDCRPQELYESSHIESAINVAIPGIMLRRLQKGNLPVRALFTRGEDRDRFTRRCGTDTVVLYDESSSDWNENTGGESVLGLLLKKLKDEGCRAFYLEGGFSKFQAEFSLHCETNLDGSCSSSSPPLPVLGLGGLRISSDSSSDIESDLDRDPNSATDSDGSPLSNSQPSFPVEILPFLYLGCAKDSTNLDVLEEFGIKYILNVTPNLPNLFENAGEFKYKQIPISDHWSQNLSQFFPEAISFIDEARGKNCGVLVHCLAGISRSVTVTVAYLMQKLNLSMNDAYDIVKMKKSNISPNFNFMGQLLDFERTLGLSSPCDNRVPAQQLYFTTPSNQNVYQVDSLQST

For `O=C1C(SCCO)=C(SCCO)C(=O)c2ccccc21` [NSC95397], the “effect on MKP3's basal activity toward OMFP” value (MKP3) is given as “inhibited”.
In the case of “Phosphorylated ERK2 (bis-pERK2, phosphorylated at T183 and Y185) (from UniProt P63085 1-358) (enzyme)”, the time of pERK2 dephosphorylation by MKP3^FL with BCI at a concentration 50 times that of pERK2 [1] is reported as > 20 fold.
